Assay results published in patent US10537611B2, “Methods of treating lung cancer” (Five Prime Therapeutics, Inc., priority 2011, dated 2020).

Tests used:
[1] = test system: panel of 35 xenograft models; assay: Anti-tumor activity in a panel of xenograft models; assay type: in vivo, mouse; conditions: panel of Table 5
Source text: (§1) Also shown in Table 5 are the dosing schedule for FGFR1-ECD.339-Fc in a mouse xenograft model, the percent tumor growth inhibition (TGI (%)) and the statistical significance of the tumor growth inhibition (P Value), as well as whether the FGFR1 gene is amplified in the cell line.
(§2) An exemplary xenograft experiment is as follows. For Caki-1 and MSTO-211H, five million cells were implanted subcutaneously over the right flank of SCID mice (N=10 per group). […] Representative tumor growth curves are shown for a renal cancer, Caki-1, (A), and mesothelioma, MSTO-211H, (B) xenograft cancer model. […] In the MSTO-211H mesothelioma model, FGFR1-ECD.339-Fc administration reduced tumor growth (FIG. 16b) by 64% (P<0.0001).

[2] = test system: DMS53 cells; assay: CellTiter-Glo cell number, DMS53; assay type: cell-based, human; conditions: 15 μg/ml, 4 days, 10%, 1% or 0.1% FBS
Source text: (§3) A panel of lung cancer cell lines displaying potential amplification of the FGFR1 gene was identified using CONAN (http://www.sanger.ac.uk/cgi-bin/genetics/CGP/conan/search.cgi) and Tumorscape (http://www.broadinstitute.org/tumorscape/pages/portalHomejsf). CONAN and Tumorscape represent public data mining tools to extract gene copy number information for predefined or user defined loci across the SNP6.0 dataset of cancer. Lung cancer cell lines DMS53, DMS114, NCI-H1581 and NCI-H520 were identified as having potential amplification of the FGFR1 gene (>4 copies/cell) and were selected for further analysis. Human small cell lung cancer (SCLC) cell lines DMS53 and DMS114 were purchased from ATCC (Manassas, Va.; Cat. No. CRL-2062; Cat. No. CRL-2066, respectfully). The cells were cultured in Waymouth's MB 752/1 medium+10% FBS+2 mM L-glutamine at 37° C. in a humidified atmosphere with 5% CO2. […]
(§4) To determine cell number the CellTiter-Glo® Luminescent Cell Viability Assay (Promega, Madison, Wis.) was employed. CellTiter-Glo® is a homogeneous method of determining the number of viable cells in culture based on quantitation of the ATP present, an indicator of metabolically active cells. […] Luminescence was then determined on an EnVision™ Multilabel Plate Reader (PerkinElmer, Boston, Mass.) with a 0.2 second integration time. Results were expressed as relative light units (RLU)/well.

[3] = test system: Calu-1 xenograft model; assay: Calu-1 xenograft tumor growth inhibition; assay type: in vivo, mouse; conditions: Lung Calu-1; IP 15 mg/kg BIW; non-amplified; P ns
Method: (§5) Percentage tumor growth inhibition by FGFR1-ECD.339-Fc was determined by area-under-the-curve (AUC) analysis of xenograft growth curves treated with FGFR1-ECD.339-Fc compared to albumin control. […] The difference in FGFR1-ECD.339-Fc-mediated xenograft inhibition between FGFR1 gene amplified and non-amplified lung cancer xenograft models was statistically significant (P=0.0333).
as §1, §2

[4] = test system: NCI-H358 xenograft model; assay: NCI-H358 xenograft tumor growth inhibition; assay type: in vivo, mouse; conditions: Lung NCI-H358; IP 15 mg/kg BIW; non-amplified; P ns
Source text: (§6) The impact of FGFR1-ECD.339-Fc on tumor growth was compared between FGFR1 gene amplified and non-amplified lung cancer xenograft models. Lung cell lines without FGFR1-amplification examined in this experiment were as follows: A549, NCI-H460, NCI-H226, NCI-H2126, NCI-H441, NCI-H358, NCI-H522 and Colo699. Non-amplified cell lines were purchased from ATTC (Manassas, Va.) and cultured according to supplier instructions. Lung cancer xenograft models using non-FGFR1 gene amplified cell lines were carried out substantially as described in Example 2.
as §5

[5] = test system: A549 xenograft model; assay: A549 xenograft tumor growth inhibition; assay type: in vivo, mouse; conditions: Lung A549; IP 10 mg/kg BIW; non-amplified; P < 0.05
Source text: as §6, §5

[6] = test system: NCI-H226 xenograft model; assay: NCI-H226 xenograft tumor growth inhibition; assay type: in vivo, mouse; conditions: Lung NCI-H226, IP 15 mg/kg 3×/w, non-amplified, P < 0.001
Source text: as §6, §5

[7] = test system: MSTO-211H xenograft model; assay: MSTO-211H mesothelioma xenograft tumor growth inhibition; assay type: in vivo, mouse; conditions: Mesothelioma MSTO-211H, IP 15 mg/kg BIW, non-amplified, P < 0.0001
Source text: as §2

[8] = test system: JIMT1 xenograft model; assay: JIMT1 xenograft tumor growth inhibition; assay type: in vivo, mouse; conditions: Breast JIMT1; IP 1 mg/kg BIW; non-amplified; P < 0.05
Method: as §5, §1, §2

[9] = test system: Colo205 xenograft model; assay: Colo205 xenograft tumor growth inhibition; assay type: in vivo, mouse; conditions: Colon Colo205; IV 5 mg/kg BIW; non-amplified; P < 0.001
Method: as §5, §1, §2

[10] = test system: NCI-H1581 cells; assay: CellTiter-Glo cell number, NCI-H1581; assay type: cell-based, human; conditions: 15 μg/ml, 4 days, 10%, 1% or 0.1% FBS
Source text: as §3, §4

FGFR1-ECD.339-Fc: human FGFR1 extracellular domain ending at amino acid 339 fused to an Fc; SEQ ID NO: 6 (mature form), SEQ ID NO: 5 with signal peptide
Responses observed (models responding / models examined) [1]: 19/35
range of inhibition in responding models [1]: 25-96%
cell number (CellTiter-Glo) [2]: reduced
TGI (%) [3]: 0%
TGI (%) [4]: 0%
TGI (%) [5]: 38%
TGI (%) [6]: 55%
TGI (%) [7]: 64%
TGI (%) [8]: 28%
TGI (%) [9]: 38%
cell number (CellTiter-Glo) [10]: reduced
